Experimental data published in PMC6678097, “Machilin A Inhibits Tumor Growth and Macrophage M2 Polarization Through the Reduction of Lactic Acid” (Cancers, 2019).

What was measured:
HT29 = assay: Cell viability, MTT assay; assay type: cell-based, human
Procedure: (§1) Human colon cancer cells (WiDr, DLD-1, RKO, and HT29) and murine Lewis lung carcinoma (LLC) cells were purchased from the American Type Culture Collection (Manassas, VA, USA). Human breast cancer MCF7 cells, human hepatocellular carcinoma cells (Huh-7, HepG2, and Hep3B), and human lung cancer cells (HCC-95 and NCI-H1793) were provided by the Korean Cell Line Bank (Seoul, Korea). The HCC-95 and NCI-H1793 cells were grown in a Roswell park memorial institute medium (RPMI) 1640 medium (HyClone^TM; GE Healthcare, Chicago, IL, USA). All other cells were grown in Dulbecco’s modified eagle medium (DMEM) supplemented with L-glutamine (200 mg/L), 10% (v/v) heat-inactivated fetal bovine serum (FBS; Sigma-Aldrich, St. Louis, MO, USA), and antibiotics (100 U/mL penicillin and 100 μg/mL streptomycin; Thermo Fisher Scientific, Waltham, MA, USA) in a humidified incubator at 37 °C and with 5% CO2 before the experiments. For induction of hypoxia condition (1% oxygen), the cells were cultured were cultured in the mixture of 94% nitrogen and 5% CO2/air at 37 °C for 24 h in cell culture incubator. Cytotoxicity of MA was evaluated using an MTT assay. Briefly, cells were incubated in 24-well plates with specified concentrations of MA for 24 or 48 h. Then, MTT solution (2.0 mg/mL) was added to each well. After 4 h of incubation at 37 °C and 5% CO2 in a cell culture incubator, the conditioned media were removed, and the amount of formazan crystals formed in living cells was estimated by measuring the absorbance at 540 nm using a microplate reader (Spectramax M2; Molecular Devices, CA, USA). The respective percentages of living cells were compared with a control treatment.

Hep3B = assay: Cell viability, MTT assay; assay type: cell-based, human
Procedure: as §1

DLD-1 = assay: Cell viability, MTT assay; assay type: cell-based; details: Homo sapiens, normoxic
Procedure: as §1

HCC-95 = assay: Cell viability, MTT assay; assay type: cell-based; details: Homo sapiens, HCC95, normoxic
Procedure: as §1

HepG2 = assay: Cell viability, MTT assay; assay type: cell-based; details: Homo sapiens, normoxic
Procedure: as §1

Huh7 = assay: Cell viability, MTT assay; assay type: cell-based; details: Homo sapiens, Huh-7, normoxic
Procedure: as §1

MCF-7 = assay: Cell viability, MTT assay; assay type: cell-based; details: Homo sapiens, MCF7, normoxic
Procedure: as §1

NCI-H1793 = assay: Cell viability, MTT assay; assay type: cell-based; details: Homo sapiens, normoxic
Procedure: as §1

RKO = assay: Cell viability, MTT assay; assay type: cell-based; details: Homo sapiens, normoxic
Procedure: as §1

WiDr = assay: Cell viability, MTT assay; assay type: cell-based; details: Homo sapiens, normoxic
Procedure: as §1

HUVECs = assay: Growth (MTT) and tube formation of endothelial cells, direct treatment; assay type: cell-based, human; details: 24 h
Procedure: Figure S10. The viabilities of HUVECs and RAW264.7 cells on MA. (A) HUVECs were treated with indicated concentration of machilin A for 24 h. The viabilities of cells were evaluated by MTT assay.
(B ) HUVECs seeded to the Matrigel-coated wells treated with machilin A for 24 h. ( C) Raw 264.7 macrophage cells were treated with indicated concentration of machilin A for 24 h. The viabilities of cells were evaluated by MTT assay.
(1 picture or pasted object on this page, not shown here)

[1] = test system: human liver cytochrome P450 2B6; details: cited from earlier work
LDHA = LDHA (Homo sapiens, UniProt P00338); assay: Surface plasmon resonance (SPR) biosensor analysis of LDHA binding; parameters: Full-length LDHA (residues 1–331) was obtained from cDNA by polymerase chain reaction (PCR); inferred from pET-28a vector and Ni-NTA purification; made in house; host or cells: E. coli BL21 (DE3); details: 25 °C, read-out: apparent KD of binding to LDHA
Procedure: The apparent dissociation constants (KD) between LDHA and Machilin A were measured using a Biacore T100 biosensor (GE Healthcare, Chicago, IL, USA). […] A total of 150 μL LDHA (50 μg/mL) in 10 mM sodium acetate (pH 5.5) was coupled via injection for 15 min at 10 μL/min, followed by injection of 1 M ethanolamine to deactivate the residual amines. To measure kinetics at 25 °C, chemical compounds with concentrations ranging from 500 to 62 μM were prepared by dilution in running buffer (10 mM HEPES, 150 mM NaCl, 0.005% v/v surfactant P20, and 1% DMSO) at a pH of 7.4. The immobilized ligand was regenerated by injecting 10 μL of 50 mM NaOH at a rate of 10 μL/min during the cycles.

[2] = hypoxic and normoxic conditions, 48 h

C[C@H](Cc1ccc2c(c1)OCO2)[C@@H](C)Cc1ccc2c(c1)OCO2 [MA, bis(3,4-methylenedioxy)-8,8’-lignan]
IC50 (HT29; Homo sapiens, HT-29, normoxic): 107 ± 4.66 µM | growth of cells (HT29; [2]): substantially inhibited the growth | IC50 (Hep3B; Homo sapiens, normoxic): 140 ± 8.55 µM | growth of cells (Hep3B; [2]): substantially inhibited the growth | IC50 (DLD-1): 423 ± 17.6 µM | IC50 (HCC-95): 228 ± 13.9 µM | IC50 (HepG2): 156 ± 23.2 µM | IC50 (Huh7): 198 ± 26.7 µM | IC50 (MCF-7): 217 ± 12.9 µM | IC50 (NCI-H1793): 96.7 ± 5.32 µM | IC50 (RKO): 192 ± 15.2 µM | IC50 (WiDr): 17.2 ± 5.75 µM | growth and tube formation of endothelial cells (HUVECs): did not directly inhibit | inhibitory effect on drug metabolism [1]: selective inhibitory effect | Kd (LDHA): 29 µM
